Data on 25 compounds can be found in PubChem BioAssay (NCI).

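The compound was tested at five concentrations on cells cultured in 96-well plates, with a 48-hour exposure period. GI50 is the concentration that inhibits growth by half. At the TGI there is no net growth.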

Common to all, as to assay: growth of human tumour cells (NCI), 48 h
The test system of assay [1] is HOP-62 NSCLC.
In assay [2] the test system is SN12C renal.
Assay [3] concerns TK-10 renal.
Assay [4] concerns IGROV1 ovarian.
In assay [5] the test system is HCT-15 colon.
Assay [6] has as its system SK-MEL-28 melanoma.
Assay [7] concerns HL-60(TB) leukemia.
Assay [8] relates to COLO 205 colon.
The subject of assay [9] is SK-OV-3 ovarian.
Assay [10] concerns M14 melanoma.

Consider `CCCCc1cc(O)ccc1O`, for which the GI50 is 53.7 µM in assay [1]; 18.7 µM in assay [2]; 17.9 µM in assay [3]; 32.3 µM in assay [4]; 28.2 µM in assay [5]; 78.7 µM in assay [6]. Further, the GI50 in assay [7] was 2.56 µM; in assay [8], 74.6 µM; in assay [9], 64.5 µM. The TGI in [1] is above 100 µM; in [2] it was above 100 µM; in assay [3], 42.8 µM; in assay [4], above 100 µM; in [5], above 100 µM; in assay [6], above 100 µM. The TGI was 6.77 µM in assay [7], above 100 µM in assay [8] and above 100 µM in assay [9].

In the case of `O=C(O)c1nnsc1COCc1ccccc1`, the TGI in assay [1], in assay [2], in assay [3], in assay [4], in assay [5] and in [6] was above 100 µM each time. The TGI in assay [10], in assay [8] and in assay [9] was above 100 µM in each case.

Consider `CC/C=C\C[C@H](O)C/C=C1/C(=O)C=C[C@@H]1C/C=C\CCCC(N)=O`, for which the GI50 in assay [1] is 2.99 µM; in assay [2] it was 2.32 µM; in assay [3], 3.16 µM; in [4], 3.09 µM; in [5], 1.74 µM; in assay [6] it was 1.93 µM. The GI50 in assay [10] was 2.31 µM; in assay [8] it was 2.11 µM; in [9], 3.96 µM. The TGI in [1] worked out at 7.77 µM; in assay [2], 6.43 µM; in assay [3], 6.95 µM; in [4], 12.2 µM; in [5] it was 5.69 µM; in assay [6], 4.26 µM. The TGI came out at 6.89 µM in [10], 4.72 µM in assay [8] and 12.8 µM in assay [9].

In the case of `Cn1c(=O)c2c(nc3n2CCC(=O)N3)n(C)c1=O`, the TGI in assay [1], in assay [2], in assay [3], in assay [4], in assay [6] and in [7] was above 100 µM each time. The TGI in assay [8] and in [9] was above 100 µM each time.

For `CCCCCCCCCCCC(=O)C1=C(O)C(O)CCC1=O` (centres undefined), the TGI in [1] was 40.4 µM; in [2], 78.3 µM; in [3], 49 µM; in [4], 82.6 µM; in [5], 27.3 µM; in assay [6], 38.6 µM. For the same compound, the TGI in assay [7] is 38.8 µM; in assay [8], 28.9 µM; in assay [9] it was 67.2 µM.

On to `c1ccc2c(NCCCCCCCCNc3c4ccccc4nc4ccccc34)c3ccccc3nc2c1`, for which the TGI is 2.24 µM in assay [1]; 2.18 µM in [2]; 5.98 µM in [3]; 1.8 µM in assay [4]; 2.48 µM in assay [5]; 2.52 µM in [10]. Also, the TGI in assay [8] is 1.61 µM; in assay [9] it was 2.71 µM.

Turning to `Cc1c2ncccc2c(C)c2c1[nH]c1ccccc12`, the TGI came out at 24.1 µM in [1]; 26 µM in assay [2]; 31.7 µM in assay [3]; 29.4 µM in assay [4]; 54.3 µM in [5]; 28.9 µM in assay [6]. Also, the results for the TGI in [10], in [8] and in [9] were 44.9 µM, 26.9 µM and 31.3 µM, respectively.

In the case of `NC(N)=N/N=C/c1c(-c2cc(Cl)sc2Cl)nc2n1CCS2`, the GI50 is 8.87 µM in assay [1]; 7.18 µM in [2]; 8.65 µM in assay [3]; 16.4 µM in assay [4]; 9 µM in assay [5]; 6.93 µM in assay [10]. Further, the TGI in [1] is 15.8 µM; in [2], 14.2 µM; in [3], 15.8 µM; in assay [4], above 50 µM; in assay [5], 16.6 µM; in [10], 14.3 µM.

Consider `c1cc2c(cnc3cscc32)s1`, for which the TGI in assay [1], in assay [2], in assay [3], in assay [5], in assay [6] and in assay [7] was above 100 µM throughout. This compound also yielded a TGI in [10] above 100 µM.

As to `COc1cc2ccc3c4cc(OC)c(OCc5ccccc5)cc4cnc3c2cc1OC`, the TGI in assay [1], in assay [2], in assay [3], in assay [4], in [6] and in [10] was above 100 µM in each case. Further, the TGI in assay [8] and in assay [9] was above 100 µM each time.

Turning to `Cc1ccc(N2C(=O)C(Cl)=C(Nc3cccc(O)c3)C2=O)cc1Cl`, the GI50 in assay [1] is 17.7 µM; in assay [2] it was 19.7 µM; in assay [3], 18.5 µM; in assay [4] it was 31.5 µM; in assay [5], 18.6 µM; in [6], 22.4 µM. Further, the GI50 in [10] is 17.6 µM; in assay [8] it was 26.4 µM; in assay [9], 21 µM. For the same compound, the TGI is 36.3 µM in assay [1]; 44.1 µM in [2]; 33.4 µM in [3]; above 100 µM in assay [4]; 40.1 µM in assay [5]; 49.8 µM in [6]. In addition, the TGI in assay [10] amounted to 32.3 µM; in assay [8], 73 µM; in assay [9], 44.2 µM.

As for `CC1(C)OC2C(=O)OC(COCc3ccccc3)C2O1` (centres undefined), the TGI in [1], in assay [2], in assay [3], in [4], in assay [5] and in assay [6] was above 100 µM throughout. Besides, the TGI in [7], in assay [10] and in assay [8] was above 100 µM in each case.

As for `c1cncc(C2c3[nH]c4ccccc4c3CCN2CCN2CCCCC2)c1` (centres undefined), the TGI in assay [1], in assay [2], in assay [3], in assay [4], in assay [5] and in assay [6] was above 100 µM in each case. The TGI was above 100 µM in assay [7], 32.3 µM in [10] and above 100 µM in assay [9].

Take `OC1CCC(C2C3CCCCC3C3CCCCC3C2C2CCC(O)CC2)CC1` (centres undefined): the TGI in assay [1] is 47.4 µM; in [2], above 100 µM; in assay [3], 34.9 µM; in assay [4] it was 12.8 µM; in [5] it was 6.14 µM; in assay [6] it was 9.59 µM. In addition, the TGI in assay [7] was 62.2 µM; in [10], above 100 µM; in [9], 31 µM.

On to `Cc1ccc(S(=O)(=O)ON/N=C2/C3OC3[C@@H]3CCCC[C@H]23)cc1` (some centres undefined), for which the TGI in assay [1], in [2], in assay [3], in assay [4], in assay [5] and in assay [6] was above 100 µM in each case. The TGI in [7], in [10] and in assay [8] was above 100 µM in each case.

In the case of `CC(C)(C)N=CN1CCC(C(c2ccccc2)c2ccccc2)CC1`, the TGI in [1], in [2], in assay [3], in assay [4], in assay [5] and in assay [6] was above 100 µM each time. For the same compound, the TGI in [8] stood at 34.2 µM.

Regarding `COc1ccc(/C=[N+](\[O-])[C@H](COCc2ccccc2)c2ccccc2)cc1`, the TGI in assay [1] was above 100 µM; in assay [3], above 100 µM; in [4], above 100 µM; in [6], above 100 µM; in assay [7], 77.2 µM; in assay [8] it was above 100 µM. For the same compound, in [9], the TGI was above 100 µM.

On to `C=C1C(=O)O[C@H]2[C@H]1CC/C(COC(=O)c1ccc(C(=O)O)s1)=C\CC[C@@]1(C)O[C@@H]21`, for which the GI50 in assay [1] was 6.96 µM; in assay [2] it was 1.74 µM; in assay [3], 1.64 µM; in assay [4] it was 2.16 µM; in assay [5] it was 1.65 µM; in [6] it was 2.1 µM. Also, the GI50 in assay [10] was 1.52 µM; in assay [8], 2.01 µM; in assay [9], 12.3 µM. Further, the TGI in assay [1] turned out to be 20.2 µM; in assay [2], 3.5 µM; in [3], 3.44 µM; in [4], 5.82 µM; in [5], 4.72 µM; in [6], 4.83 µM. The TGI in [10] turned out to be 3.43 µM; in assay [8], 3.92 µM; in assay [9] it was 25.1 µM.

For the compound `CCCN(CCC)c1c([N+](=O)[O-])cc(S(N)(=O)=O)cc1[N+](=O)[O-]`, the TGI in [1] is 32 µM; in assay [2], 31.6 µM; in assay [4] it was 19.6 µM; in [5], 32.2 µM; in assay [6], 36.3 µM; in assay [10] it was 30.9 µM. For the same compound, the TGI in [8] worked out at 43.1 µM; in assay [9], 31.8 µM.

Regarding `COc1cccc2c(=O)c3c(sc12)c(NCCCN)nc1ccccc13`, the GI50 in [2] was 1.45 µM; in assay [3], 1.99 µM; in assay [4], 0.858 µM; in assay [5] it was 1.32 µM; in [6] it was 1.87 µM; in assay [7], 1.98 µM. Moreover, the TGI amounted to 2.85 µM in assay [2]; 3.63 µM in assay [3]; 2.16 µM in [4]; 2.7 µM in assay [5]; 3.36 µM in assay [6]; 3.94 µM in [7].

Regarding `O=C1C=C(c2cc(Br)c(O)c(Br)c2)/C(=C/c2cc(Br)c(O)c(Br)c2)O1`, the GI50 was 36.5 µM in assay [2]; 35.8 µM in [3]; 17.8 µM in assay [4]; 28.8 µM in assay [5]; 34.8 µM in [6]; 17.8 µM in [10]. Moreover, in assay [8], the GI50 is 29.8 µM. The TGI in assay [2], in assay [3], in assay [4], in [5], in assay [6] and in assay [10] was above 75 µM in each case. In addition, in assay [8], the TGI is above 75 µM.

For the compound `CCOC(=O)C(=O)Nc1c(C)cccc1CC`, the TGI in assay [1], in [2], in [3], in assay [4], in assay [6] and in assay [7] was above 100 µM in each case. For the same compound, the TGI in assay [10] and in assay [9] was above 100 µM each time.

Consider `COC(=O)c1ccc(OCc2ccc3oc(=O)c(-c4ccccc4)nc3c2)cc1`, for which the TGI in assay [1], in assay [2], in [3], in [5], in assay [6] and in assay [7] was above 100 µM each time. Further, the TGI in assay [10] and in assay [8] was above 100 µM in each case.

For `CCN(CC)C(=S)SSC1CCCCC1`, the GI50 in assay [1] was 26.8 µM; in assay [2] it was 15.8 µM; in assay [3], 18 µM; in assay [4], 17.2 µM; in [5], 19.7 µM; in assay [6], 19.9 µM. The figures for the GI50 in assay [7], in assay [10] and in [9] were 13.6 µM, 14.4 µM and 31.2 µM, respectively. Besides, the TGI in assay [1] is 77.9 µM; in assay [2], 31.2 µM; in assay [3], 34.6 µM; in [4], 38.4 µM; in assay [5] it was 46.4 µM; in assay [6] it was 42.2 µM. In addition, the figures for the TGI in assay [7], in assay [10] and in assay [9] were 47.2 µM, 30.9 µM and 75 µM, respectively.

Turning to `CCOC(=O)/C=C(/CN1C(=O)c2ccccc2C1=O)c1ccccc1`, the TGI in assay [1], in assay [2], in assay [3], in [4], in assay [5] and in [6] was above 100 µM in each case. Moreover, the TGI in assay [10], in assay [8] and in assay [9] was above 100 µM in each case.
